Data on two compounds can be found in patent US20070167502A1, “Association between a heterocyclic compound and an antioxidant agent” (priority 2004, published 2007).

The subject of this assay is Male C57 Black 6 ob/ob mice. Put plainly: Change in body weight of ob/ob mice after 7 days of treatment. In kind it is in vivo. As to conditions: intraperitoneal route once a day for 7 days, weight after 7 days of treatment. The method, then: Male C57 Black 6 ob/ob mice from 8 to 12 weeks old were used. […] After being weighed, the various compounds under test were injected by the intraperitoneal route once a day for 7 days. The compounds were injected in a solution of DMSO 5%/Solutol 15%/qsp H2O heated at 65° C. to ensure good dissolution. In addition, the solution was pre-heated before injection. The mice were weighed every day and the weight obtained after 7 days of treatment was recorded.

SMILES strings stand for the structures.

Turning to `CCOC(Cc1ccc(OCCn2c(=O)sc3cc(C(=NO)c4ccccc4)ccc32)cc1)C(=O)O` (centres unmarked) [2-ethoxy-3-{4-[2-(6-[(hydroxyimino)(phenyl)methyl]-2-oxo-1,3-benzothiazol-3(2H)-yl)ethoxy]phenyl}propanoic acid], the “reduction in the weight gain” value is on record as 10%.

For the compound `COC1=C(OC)C(=O)C(C/C=C(\C)CC/C=C(\C)CC/C=C(\C)CC/C=C(\C)CC/C=C(\C)CC/C=C(\C)CC/C=C(\C)CC/C=C(\C)CC/C=C(\C)CCC=C(C)C)=C(C)C1=O` [coenzyme Q10], the “reduction in the weight gain” value is on record as “does not reduce the weight gain”.
